≈ marks a conversion by molar mass, not a printed value. Ends that are not written are not given here.
Key:
[1] = tested on: C. albicans SC5314 biofilm; assay: Sessile MIC50 of C. albicans SC5314 biofilm (XTT reduction, supplement); type: cell-based, Candida albicans
Description: Figure 2R. Difference between supernatant volume used for OD 490nm reading (50 and 80µL) using XTT
reduce assay. The experiments were performed four times independently. Statistical analyses: two-way
ANOVA test and Turkey pos-test (**** P ≤ 0,0001; *** P ≤ 0,001; ** P ≤ 0,01; * P ≤ 0,05).
Table 1R. Sessile Minimum Inhibitory Concentration 50% (SMIC50) of C. albicans SC5314
biofilm in response to Amphotericin B serially diluted from 0,01562 to 16 µg/mL.

[2] = tested on: C. neoformans (B3501 serotype D); assay: microbe, parasite or virus in culture; type: cell-based, Cryptococcus neoformans var. neoformans; conditions: Cryptococcus neoformans; RPMI-1640 pH 7.0, 10^4 cells/mL, 37°C, 48 h, shaking 200 rpm; at least three experiments; read-out: Minimum inhibitory concentration, C. neoformans (B3501 serotype D)
Text: (§1) Candida albicans strain SC 5314 (ATCC MYA-2876) was provided by Dr. Joshua Nosanchuk (New York, NY, USA). C. glabrata ATCC 90030, C. parapsilosis ATCC 22019, and C. tropicalis ATCC 750 were provided by Dr. Érika Kioshima (Universidade Estadual de Maringá, Paraná, Brazil). C. neoformans var. grubii strain H99 (serotype A, ATCC 208821) was provided by Dr. John Perfect (Durham, NC, USA). C. neoformans var. neoformans B3501 (serotype D, ATCC 34873) was obtained from ATCC (Manassas, VA, USA). All strains were stored as frozen stocks in 35% glycerol at -80°C. Before each experiment, all Candida spp. strains were grown in Sabouraud’s dextrose broth overnight at 30°C with agitation. C. neoformans strains were grown in the same conditions for 24 h. Fungal cells were collected by centrifugation, washed three times in phosphate buffered saline (PBS) (137 mM NaCl, 2.7 mM KCl, 10 mM Na2HPO4, 2 mM KH2PO4) and inoculated in Roswell Park Memorial Institute (RPMI) 1640 medium supplemented with L-glutamine and buffered to pH 7.0 with 165 mM 3-(N-morpholino)propanesulfonic acid for experiments described below.
(§2) In vitro antifungal assays were performed according to broth microdilution susceptibility test from Clinical and Laboratory Standards Institute (CLSI) M27-A3 guidelines with some modifications. Briefly, twofold serial dilutions of each peptide were prepared in 96-well polystyrene microplates to a final volume of 50 μL. Amphotericin B (Amp B; A2942, Sigma-Aldrich), a known antifungal drug, was used as a positive control. Final concentrations of each peptide and Amp B ranged from 100 to 0.78 μM and 16 to 0.03 μg/mL, respectively, except in tests with C. glabrata and C. parapsilosis, where the final peptide concentration ranged from 400 to 0.78 μM. In each plate, wells were included without peptide as a growth control. Then, 50 μL of the adjusted inoculum in RPMI-1640 medium were added to each well to a final concentration of 2 × 10^3 cells/mL for Candida spp. and 10^4 cells/mL for C. neoformans strains. The plates were incubated at 37°C for 24 and 48 h, respectively. The strains of C. neoformans were also incubated with shaking (200 rpm). […] The experiments were performed at least three times on separate dates.

[3] = tested on: C. neoformans (H99 serotype A); assay: microbe, parasite or virus in culture; type: cell-based, Cryptococcus neoformans var. grubii; conditions: Cryptococcus neoformans; RPMI-1640 pH 7.0, 10^4 cells/mL, 37°C, 48 h, shaking 200 rpm; at least three experiments; read-out: Minimum inhibitory concentration, C. neoformans (H99 serotype A)
Text: as §1, §2

[4] = tested on: C. parapsilosis (ATCC 22019); assay: microbe, parasite or virus in culture; type: cell-based, Candida parapsilosis; conditions: Lodderomyces parapsilosis, ATCC22019; RPMI-1640 pH 7.0, 2 × 10^3 cells/mL, 37°C, 24 h; peptides 400 to 0.78 μM; at least three experiments; read-out: Minimum inhibitory concentration, C. parapsilosis (ATCC 22019)
Text: as §1, §2

[5] = tested on: C. tropicalis (ATCC 750); assay: microbe, parasite or virus in culture; type: cell-based, Candida tropicalis; conditions: Candida tropicalis, ATCC750; RPMI-1640 pH 7.0, 2 × 10^3 cells/mL, 37°C, 24 h; complete inhibition of visible growth; at least three experiments; read-out: Minimum inhibitory concentration, C. tropicalis (ATCC 750)
Text: as §1, §2

[6] = tested on: C. albicans SC 5314 biofilm, initial cell adherence; assay: C. albicans biofilm, initial adherence (XTT reduction); type: cell-based, Candida albicans; conditions: at 0.25 μg/mL
Description: (§3) The effects of the peptides NDBP-4.23, ToAP1, ToAP2, and NDBP-5.7 on C. albicans biofilms were analyzed according to the protocol described by [Pierce et al. (2008)]. Briefly, C. albicans SC 5314 (10^6 cells/mL) was grown on 96-well polystyrene microplates and 4 h after seeding the peptides or Amp B were added to assess their effects on the first step of biofilm formation, the initial cell adherence. After 24 h of treatment, biofilm formation was measured by the metabolic assay based on the reduction of 2,3-bis-(2-methoxy-4-nitro-5-sulfophenyl)-2H-tetrazolium-5-carboxanilide (XTT). For the purpose of investigating effects of peptides on mature biofilms, the Candida cells were allowed to grow for 24 h prior to addition of the peptides or Amp B and the XTT assay was performed in the same way. All results were analyzed for statistical significance using analysis of variance (ANOVA) followed by Tukey post-test using GraphPad Prism 6 and expressed in terms of biofilm viability as XTT-readings percentage normalized by the control groups. Each compound was tested in triplicate and the experiments were performed at least twice on separate dates.

[7] = tested on: C. glabrata (ATCC 90030); assay: microbe, parasite or virus in culture; type: cell-based, Candida glabrata; conditions: Nakaseomyces glabratus, ATCC90030; RPMI-1640 pH 7.0, 2 × 10^3 cells/mL, 37°C, 24 h; peptides 400 to 0.78 μM; at least three experiments; read-out: Minimum inhibitory concentration, C. glabrata (ATCC 90030)
Text: as §1, §2

[8] = tested on: C. albicans SC 5314 mature biofilm; assay: C. albicans mature biofilm (XTT reduction); type: cell-based, Candida albicans; conditions: at 2 μg/mL
Description: as §3

[9] = tested on: C. albicans (SC5314); assay: microbe, parasite or virus in culture; type: cell-based, Candida albicans; conditions: Candida albicans, SC5314; RPMI-1640 pH 7.0, 2 × 10^3 cells/mL, 37°C, 24 h; complete inhibition of visible growth; at least three experiments; read-out: Minimum inhibitory concentration, C. albicans (SC5314)
Text: as §1, §2

[10] = tested on: peritoneal macrophages of BALB/c mice; assay: Cytotoxic test using peritoneal macrophages (LDH release); type: cell-based, mouse; conditions: 24 h, threshold of acceptable cytotoxicity 50% viability, three independent experiments
Description: BALB/c mice were injected with thioglycolate 72 h before peritoneal macrophages were harvested. They were diluted to a concentration of 10^6 cell/mL in RPMI-1640 supplemented with penicillin/streptomycin (100 U/mL, 100 µg/mL), 2 mM L-glutamine, 2 mM non-essential amino acids, 1 mM sodium pyruvate (all reagents from Sigma-Aldrich, St Louis, MO, USA) and 10% fetal bovine serum (FBS), and incubated in 96-well polystyrene microplates at 37°C, 5% CO2 for 24 h. The peptides were added then and cells were further incubated for 24 h as described previously ([Cruz et al., 2005]). Three independent experiments were performed. Cytotoxic activity was evaluated by the release of cytoplasmic enzyme lactate dehydrogenase due to cell lysis using the Cytotox kit (Promega). Briefly, at the end of the incubation period, supernatants were collected, the adhered cells were washed and the toxicity was determined according to the manufacturer’s protocol. The procedures were approved by the Ethics Committee on Animal Research of Institute of Biology (UnBDOC 52657/2011)/University of Brasília (UnB).

[11] = Stability assays of native and modified peptide; type: physicochemical; conditions: non-modified versus modified peptide

For `C[C@@H]1[C@H](O)[C@@H](C)/C=C/C=C/C=C/C=C/C=C/C=C/C=C/[C@H](O[C@@H]2O[C@H](C)[C@@H](O)[C@H](N)[C@@H]2O)C[C@@H]2O[C@](O)(C[C@@H](O)C[C@@H](O)[C@H](O)CC[C@@H](O)C[C@@H](O)CC(=O)O[C@H]1C)C[C@H](O)[C@H]2C(=O)O` [Amp B, Amphotericin B], the SMIC50 ([1]; 4h biofilm, 50 µl supernatant read at OD 490nm) was 0,08420 ug/mL, the SMIC50 ([1]; 4h biofilm, 80 µl supernatant read at OD 490nm) was 0,06812 ug/mL and the SMIC50 ([1]; 24h biofilm, 50 µl supernatant read at OD 490nm) was 0,1919 ug/mL. For the same compound, the SMIC50 ([1]; 24h biofilm, 80 µl supernatant read at OD 490nm) was 0,1732 ug/mL, the SMIC50 ([1]; 48h biofilm, 50 µl supernatant read at OD 490nm) was 0,2857 ug/mL and the SMIC50 ([1]; 48h biofilm, 80 µl supernatant read at OD 490nm) was 0,2424 ug/mL. It also gave an MIC [2] of 0.135 µM (≈ 0.125 µg/mL), an MIC [3] of 0.27 µM (≈ 0.25 µg/mL) and an MIC [4] of 2.16 µM (≈ 2 µg/mL). The MIC [5] was 2.16 µM (≈ 2 µg/mL), the “Reduction in biofilm viability, initial adherence” value [6] was “at least 80%” and the MIC [7] was 1.08 µM (≈ 0.998 µg/mL). The “Reduction in biofilm viability, three-dimensional architecture” value [8] was “at least 80%” and the MIC [9] was 1.08 µM (≈ 0.998 µg/mL).
In the case of FFGTLFKLGSKLIPGVMKLFSKKKER [ToAP2], the “Concentrations showing low cytotoxicity” value [10] is reported as “below 6.25 μM” and the “Stability compared with the modified peptide” value [11] is reported as “lower stability”.

Source: paper PMC5114273, “Activity of Scorpion Venom-Derived Antifungal Peptides against Planktonic Cells of Candida spp. and Cryptococcus neoformans and Candida albicans Biofilms” (Frontiers in Microbiology, 2016)
